Experiment: Thermal stability of triacetyl-β-CD (TGA)
Assay type: physicochemical
Method: In order to determine the stability of triacetyl-β-CD, a sample was heated to 400° C. at 20° C./min under nitrogen in a DuPont 2200 thermogravimetric spectrometer (FIG. 7). […] A sample of triacetyl-β-CD was then held at 300° C. for 35 minutes (FIG. 8). Even after extended heating at this temperature, only about 3.2% weight loss was observed.

Temperature until which 10% weight loss is not observed (TGA, FIG. 7): 372 °C | Weight loss observed until above 325° C. (heated to 400° C. at 20° C./min under nitrogen): ca. 0.2% | Weight loss (held at 300° C. for 35 minutes): about 3.2%
SMILES: CC(=O)OC[C@H]1O[C@@H]2O[C@H]3[C@H](OC(C)=O)[C@@H](OC(C)=O)[C@@H](O[C@H]4[C@H](OC(C)=O)[C@@H](OC(C)=O)[C@@H](O[C@H]5[C@H](OC(C)=O)[C@@H](OC(C)=O)[C@@H](O[C@H]6[C@H](OC(C)=O)[C@@H](OC(C)=O)[C@@H](O[C@H]7[C@H](OC(C)=O)[C@@H](OC(C)=O)[C@@H](O[C@H]8[C@H](OC(C)=O)[C@@H](OC(C)=O)[C@@H](O[C@H]1[C@H](OC(C)=O)[C@H]2OC(C)=O)O[C@@H]8COC(C)=O)O[C@@H]7COC(C)=O)O[C@@H]6COC(C)=O)O[C@@H]5COC(C)=O)O[C@@H]4COC(C)=O)O[C@@H]3COC(C)=O [triacetyl-β-CD, heptakis(2,3,6-tri-O-acetyl)-β-cyclodextrin]

Reference: US20040063663A1, “Acylated cyclodextrin: guest molecule inclusion complexes” (priority 2000, published 2004)
